From US7348336B2 (Sanofi-Aventis Deutschland GmbH, priority 2000, dated 2008)
Counter-ions that a name gives are not always drawn.

Molecular target: T1, IκBα-kinase complex (Homo sapiens, UniProt O14920+O15111)
T1 construct: endogenous in cells; host or cells: HeLa S3 cell extract, S100 fraction; ammonium sulfate precipitation and Superose-6 size exclusion
Test: IkB-Kinase ELISA;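 further: substrate phosphopeptide captured on Protein-A plates, detected with Streptavidin-HRP and TMB absorbance at 450 nm, activity read from a synthetic phosphopeptide standard curve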
Format: biochemical
Settings: activated IκBα kinase complex from HeLa S3 cell extracts; ELISA; read-out: IkB-kinase IC50

T1 sequence (O14920 whole entry): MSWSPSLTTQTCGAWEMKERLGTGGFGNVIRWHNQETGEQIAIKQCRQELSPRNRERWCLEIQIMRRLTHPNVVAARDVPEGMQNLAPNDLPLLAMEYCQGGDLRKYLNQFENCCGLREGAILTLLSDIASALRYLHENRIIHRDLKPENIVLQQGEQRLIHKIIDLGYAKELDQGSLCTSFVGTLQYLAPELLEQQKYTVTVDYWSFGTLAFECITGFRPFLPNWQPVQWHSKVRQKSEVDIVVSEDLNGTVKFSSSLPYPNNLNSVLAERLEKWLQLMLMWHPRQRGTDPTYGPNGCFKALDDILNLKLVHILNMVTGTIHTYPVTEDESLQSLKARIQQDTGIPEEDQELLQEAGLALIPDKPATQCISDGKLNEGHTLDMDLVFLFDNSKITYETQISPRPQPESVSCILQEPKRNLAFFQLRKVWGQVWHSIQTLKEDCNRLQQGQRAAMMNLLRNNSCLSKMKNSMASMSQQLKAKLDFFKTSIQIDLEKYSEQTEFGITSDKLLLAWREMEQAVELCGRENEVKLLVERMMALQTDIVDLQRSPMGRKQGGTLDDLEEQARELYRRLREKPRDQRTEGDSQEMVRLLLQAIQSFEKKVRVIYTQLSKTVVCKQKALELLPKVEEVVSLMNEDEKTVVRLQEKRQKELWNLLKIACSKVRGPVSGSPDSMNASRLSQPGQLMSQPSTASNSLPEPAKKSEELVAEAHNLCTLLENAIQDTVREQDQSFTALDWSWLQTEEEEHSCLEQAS
T1 sequence (O15111 whole entry): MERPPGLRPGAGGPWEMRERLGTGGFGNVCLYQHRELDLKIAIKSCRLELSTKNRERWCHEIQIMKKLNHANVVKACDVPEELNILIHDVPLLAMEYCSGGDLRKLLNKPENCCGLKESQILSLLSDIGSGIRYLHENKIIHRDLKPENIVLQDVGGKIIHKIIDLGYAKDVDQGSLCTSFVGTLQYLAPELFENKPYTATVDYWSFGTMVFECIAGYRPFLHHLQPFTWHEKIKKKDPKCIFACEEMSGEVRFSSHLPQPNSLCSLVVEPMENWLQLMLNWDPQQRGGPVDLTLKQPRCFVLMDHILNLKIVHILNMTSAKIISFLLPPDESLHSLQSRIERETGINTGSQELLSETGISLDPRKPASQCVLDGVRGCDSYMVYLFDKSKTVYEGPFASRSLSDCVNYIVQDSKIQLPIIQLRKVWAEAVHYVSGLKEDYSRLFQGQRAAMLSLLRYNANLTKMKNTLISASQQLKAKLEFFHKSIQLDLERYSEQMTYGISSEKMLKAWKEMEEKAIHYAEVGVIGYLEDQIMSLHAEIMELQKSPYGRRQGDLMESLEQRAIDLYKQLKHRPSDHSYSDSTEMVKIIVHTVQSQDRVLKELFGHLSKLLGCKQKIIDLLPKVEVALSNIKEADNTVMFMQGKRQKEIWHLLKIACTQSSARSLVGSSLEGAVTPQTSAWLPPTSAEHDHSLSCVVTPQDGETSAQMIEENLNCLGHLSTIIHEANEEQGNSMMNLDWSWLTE
T1 sequence (Q9Y6K9 whole entry partner): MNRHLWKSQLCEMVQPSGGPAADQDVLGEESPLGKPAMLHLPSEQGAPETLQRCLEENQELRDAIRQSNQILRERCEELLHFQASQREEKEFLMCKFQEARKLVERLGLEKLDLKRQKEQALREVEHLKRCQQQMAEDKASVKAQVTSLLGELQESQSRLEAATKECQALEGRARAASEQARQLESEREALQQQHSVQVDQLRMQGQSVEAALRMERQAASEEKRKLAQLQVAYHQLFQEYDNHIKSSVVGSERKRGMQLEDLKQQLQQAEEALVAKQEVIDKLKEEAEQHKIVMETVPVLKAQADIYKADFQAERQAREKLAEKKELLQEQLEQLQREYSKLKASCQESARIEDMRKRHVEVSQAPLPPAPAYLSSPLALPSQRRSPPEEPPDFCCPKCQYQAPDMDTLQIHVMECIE

| Compound | IC50 |
| --- | --- |
| O=C(Nc1cc(Cl)cc2c1[nH]c1cnccc12)c1ccc(F)cc1 [Example 49, trifluoroacetate] | 220 nM |
| CC(C)CC(=O)Nc1cc(Cl)cc2c1[nH]c1cnccc12 [Example 55, trifluoroacetate] | 800 nM |
| O=C(Nc1cc(Cl)cc2c1[nH]c1cnccc12)c1cnccn1 [Example 88] | 280 nM |

Further lines, results first:

| IC50 | Compound |
| --- | --- |
| 4600 nM | COc1cc2[nH]c3c(C)nccc3c2cc1Br [Example 32] |
| 3000 nM | O=C(c1cccnc1)N1CCn2c3cnccc3c3cc(Cl)cc1c32 [Example 69] |

System: cardiac allograft (BALB/c->C57BL/6 or B6/129)
Test: Mouse heterotopic cardiac transplant model
Format: in vivo
Settings: oral, 25 mg/kg/day for 14 days, starting at transplantation; mean±SD
Excerpt: Mouse Heterotopic Cardiac Transplant Model
In the mouse heterotopic cardiac transplant model across full histocompatibility barriers (BALB/c->C57BL/6 or B6/129), graft survival is typically limited to 7.3±0.4 days (mean±SD, n0 allografts) (see for example in Hancock W W, Sayegh M H, Zheng X G, Peach R, Linsley P S, Turka L A. Costimulatory function and expression of CD40-ligand, CD80 and CD86 or in vascularized murine cardiac allograft rejection. Proc Natl Acad Sci (USA) 93, 1996, 13967-13972; and Hancock W W, Buelow R, Sayegh M H, Turka L A. Antibody-induced transplant arteriosclerosis is prevented by graft expression of anti-oxidant and anti-apoptotic genes. Nature Med 4, 1998, 1392-1396).
The effects of oral administration of the compounds according to examples 49 and 60 were tested using 25 mg/kg/day for 14 days, starting at transplantation in said animal model. Whereas grafts in animals receiving the carrier, methyl-cellulose, rejected by 7 days (6.7±0.8), grafts in compound 49-treated mice survived around 15 days (15.3±0.6), and grafts in those given compound 60 survived for 20 days (20±1). Current immunosuppressive therapies used in transplantation have limited efficacy and/or considerable toxicity.

| Compound | graft survival |
| --- | --- |
| O=C(Nc1cc(Cl)cc2c1[nH]c1cnccc12)c1ccc(F)cc1 [Example 49, trifluoroacetate] | 15.3 ± 0.6 days |
